Measured values from patent US20160279199A1, “PHARMACEUTICAL COMPOSITION FOR TREATING A METABOLIC SYNDROME” (Sanofi, priority 2010, published 2016).
No end group written: not given here.

How the values were obtained:
db/db mice [1] = experiment: Fed blood glucose during treatment of db/db mice; type: in vivo, mouse; details: s.c. once daily (AVE0010 0.05, FGF-21 0.75, combination 0.75+0.05 mg·kg−1·day−1), up to 4 weeks, FIG. 6
Experimental: (§1) Female db/db mice (BKS.Cg-m +/+ Leprdb/J, age of 6 weeks) were treated with vehicle (PBS), 0.05 mg·kg^−1·day^−1 AVE0010, 0.75 mg·kg^−1·day^−1 recombinant human FGF-21 (SEQ ID NO: 2) or a combined dose of FGF-21 (SEQ ID NO: 2) and AVE0010 (SEQ ID NO:9), (0.75+0.05 mg·kg^−1·day^−1) subcutaneously once daily. Mice were fed ad libitum. Before the first treatment, after one week and 4 weeks blood glucose and HbA1c were measured under fed conditions. After 21 days of treatment an oral glucose tolerance test (OGTT) was initiated. Fasted mice were orally challenged with 2 g·kg^−1 glucose solution and blood glucose was measured at indicated time points.

db/db mice [2] = experiment: Oral glucose tolerance test (OGTT) in treated db/db mice; type: in vivo, mouse; details: after 21 days s.c. once daily (AVE0010 0.05, FGF-21 0.75, combination 0.75+0.05 mg·kg−1·day−1), fasted, 2 g·kg−1 oral glucose, vs vehicle treated obese control, FIG. 5
Experimental: as §1

Type 2 diabetic patients = details: cited from earlier work; for fasting hyperglycaemia: doses elevating plasma concentrations to approximately 3-4 fold physiological postprandial levels, Type 2 diabetic patients
[3] = human subjects with Type 2 diabetes

Substance: AVE0010: GLP-1R agonist peptide, amino acid sequence SEQ ID NO: 9 [reference compound]
- blood glucose (db/db mice [1]): inhibition of blood glucose increase
- glucose tolerance (OGTT) (db/db mice [2]): small improvement in glucose tolerance

Substance: GLP-1(7-27): bioactive GLP-1 form as printed in b13 (HAEGTFTSDVSSYLEGQAAKE; Glucagon-like peptide 1; UniProt P01275 98-118, looked up, fragment)
- fasting hyperglycaemia (Type 2 diabetic patients): fully normalizes

Substance: GLP-1(7-36 amide): bioactive GLP-1, amino acid sequence SEQ ID NO: 4 (HAEGTFTSDVSSYLEGQAAKEFIAWLVKGR-NH2)
- fasting hyperglycaemia (Type 2 diabetic patients): fully normalizes

Substance: GLP-1: gut peptide glucagon-like peptide-1, an incretin hormone (HAEGTFTSDVSSYLEGQAAKEFIAWLVKGR; ends and bridges not checked; UniProt P01275 98-127, looked up)
- blood glucose (Type 2 diabetic patients; [3]): reduces
- insulin secretion (Type 2 diabetic patients; [3]): stimulates
